Patent publication US20100113337A1, “METHOD FOR REDUCING INCIDENCE OR RATE OF DEVELOPMENT OF SKIN CANCERS AND RELATED CONDITIONS” (Clinuvel Pharmaceuticals Limited, priority 2006, published 2010)

How the values were obtained:
[1] = tested on: human volunteers; conditions: cited from earlier work
[2] = tested on: Hairless albino Sh:HR-1 mice; assay: UVB induced skin carcinogenesis in hairless mice (tumour multiplicity); assay type: in vivo, mouse; conditions: one minimal erythemal dose of UVB daily for 10 weeks; tumours counted at weeks 11, 13, 14, 15, 16 and 17; versus control group
Source text: Hairless mouse strains such as the HRA-Skh-1 mice are a standard mouse model used to study solar damage to human skin (Canfield et al., 1985—reference 1). Exposure of the hairless mouse to UV light mimics “sunburn” in humans. With continued irradiation treatment, this on-going damage is reflected in progressive thickening of the skin which histologically mimics hyperkeratinization and elastosis associated with photoaging and chronically sun-exposed skin in humans. Pre-malignant tumours begin to appear within several weeks of completion of the ultra violet light regimen. Over an ensuing time period there is a progressive development of pre-malignant and malignant tumours, the histology and behaviour of which closely mimic keratoses and pre-malignant and malignant skin cancers that develop in humans in response to sunlight.
Hairless albino Sh:HR-1 mice are divided into two groups each containing 20 animals. The first group receiving Nle^4-D-Phe^7-alpha-MSH, and the second group being a control group. Both groups receive one minimal erythemal dose of UVB light to stimulate the toxic effect of sunlight on the skin daily for 10 weeks. At weeks 11, 13, 14, 15, 16 and 17 the number of skin tumours on each animal is measured and calculated as tumour multiplicity, i.e. average number of tumours per mouse.

Substance: [Nle^4,D-Phe^7]-alpha-MSH [Nle^4-D-Phe^7-α-MSH]
- induction of melanin synthesis [1]: can induce melanin synthesis
- protection against UVB induced carcinogenesis (tumour multiplicity, average number of tumours per mouse) [2]: Protection against UVB induced carcinogenesis is observed
